From PubChem BioAssay (NCI)
Several values for one entry are separate records, joined by “and”; a condition that tells them apart may be missing. Equal values may be shown once.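 48-hour exposure; five concentrations; linearly interpolated endpoints. Abbreviation: GI50, concentration required for 50% inhibition of growth. TGI denotes the concentration required for complete inhibition of growth.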

Tests used:
Assay in all cases: NCI-60 cell line screen, 48 h
[1] = system: UACC-62 melanoma
[2] = system: SW-620 colon
[3] = system: OVCAR-5 ovarian
[4] = system: SNB-75 CNS
[5] = system: HT29 colon
[6] = system: RPMI-8226 leukemia
[7] = system: SN12C renal
[8] = system: IGROV1 ovarian
[9] = system: MCF7 breast
[10] = system: PC-3 prostate

SMILES	TGI [1] [µM]	TGI [2] [µM]	TGI [3] [µM]	TGI [4]	TGI [5] [µM]	TGI [6] [µM]	TGI [7] [µM]	TGI [8] [µM]	GI50 [1] [µM]	GI50 [2] [µM]	GI50 [3] [µM]	GI50 [6] [µM]	GI50 [7] [µM]	GI50 [9] [µM]	TGI [9] [µM]	GI50 [10] [µM]	TGI [10] [µM]	GI50 [8] [µM]	GI50 [5]	GI50 [4] [µM]
O=C(/C=C/c1ccc(OCCCCCCCCCCOc2ccc(/C=C/C(=O)c3ccc(Cl)cc3)cc2)cc1)c1ccc(Cl)cc1	> 100	> 100	> 100	> 100 µM	> 100	> 100	> 100	> 100	–	–	–	–	–	–	–	–	–	–	–	–
COc1cc(OC)cc(N2CCC(c3c(N)nc(N)nc3Cl)CC2)c1	> 100	> 100	> 100	> 100 µM	–	> 100	> 100	> 100	–	–	–	–	–	–	–	–	–	–	–	–
Cc1cccc(C)c1NC(=O)CCC(=O)NNC(=O)c1cc(O)c2ccccc2c1	71.3	> 100	> 100	> 100 µM	> 100	> 100	> 100	> 100	–	–	–	–	–	–	–	–	–	–	–	–
O=S(=O)(Nc1ccc(-c2nc(-c3cccc(OCCN4CCOCC4)c3)c(-c3ccnc(Br)c3)[nH]2)cc1)c1ccccc1	12.1	> 100	> 100	–	–	> 100	> 100	> 100	2.66	3.53	5.99	2.5	5.37	2.16	8.51	2.4	36.6	3.98	–	–
Cc1c(/C=C2\CC/C(=C\c3[nH]c(C(=O)OC(C)(C)C)c(C)c3C)C2=O)[nH]c(C(=O)OC(C)(C)C)c1C	> 100	> 100	> 100	> 100 µM	> 100	> 100	> 100	> 100	–	–	–	–	–	–	–	–	–	–	–	–
Cc1ccc(S(=O)(=O)N(C)C)cc1[N+](=O)[O-]	> 100	> 100	> 100	–	> 100	> 100	> 100	> 100	> 100	> 100	> 100	> 100	> 100	> 100	> 100	> 100	> 100	59.7	> 100 µM	–
COc1ccc(C(CC(=O)c2ccccc2)C(C(=O)c2ccccc2)C(c2ccc(OC)cc2)C2C(=O)NC(=O)NC2=O)cc1 (configuration not stated)	48.9	> 100	56.8	> 100 µM	–	> 100	> 100	> 100	16.2	26.3	17.4	13.8	24.2	18.7	> 100	7.31	> 100	13.2	–	32.6
CCc1nc2c(O)ccc(O)c2nc1C	27.5	4.1	33.5	37.6 µM	34.9	> 43.8	29.6	33.1	–	–	–	–	–	–	–	–	–	–	–	–
COc1ccc(CNc2cc(OC)cc(OC)c2)cc1	> 100	> 100	> 100	> 100 µM and 96.8 µM	> 100	> 100	> 100	> 100	–	–	> 78.1	–	> 70.1	–	–	–	–	–	> 73.8 µM and 35 µM	–
CN(C)CCC1(C2=CCCC2)CC/C(=C\c2ccc3c(c2)OCO3)C1=O (configuration not stated)	39.5	29.9	29.2	–	25.2	73.9	28.8	–	–	–	–	–	–	–	–	–	–	–	–	–
c1ccc2c(c1)O[As](O[As]1Oc3ccccc3O1)O2	–	14.8	22.2	12 µM	8.74	4.61	14.9	10.5	–	3.01	5.01	1.07	3.02	1.86	13.2	–	–	1.56	2.75 µM	1.87
N#C/C(=C\c1ccc(CP(=O)(O)O)cc1)C(N)=O	> 100	> 100	> 100	–	> 100	> 100	> 100	> 100	–	–	–	–	–	–	–	–	–	–	–	–
CS(=O)(=O)C1S(=O)(=O)OCCOS1(=O)=O	> 100	> 100	> 100	> 100 µM	> 100	> 100	> 100	> 100	–	–	–	–	–	–	–	–	–	–	–	–
O=C(Cc1ccccc1)Oc1ccc2c(-c3ccccc3)c(C(=O)Nc3ccc(Cl)cc3)c(=O)oc2c1	> 100	> 100	> 100	> 100 µM	> 100	> 100	> 100	> 100	–	–	–	–	–	–	–	–	–	–	–	–
OCC(O)CC[CH2][Sn]([c]1ccccc1)([c]1ccccc1)[c]1ccccc1 (configuration not stated)	29.8	26.9	28.3	29 µM	33.4	47.5	30.8	33.7	16.1	13.2	14.9	14.4	15.1	–	–	–	–	16.3	19 µM	15.4
CC(C)(C)c1nc2c(o1)C(=Nc1ccccc1)c1ccccc1C2=O	5.08	18.4	29.4	13.6 µM	57.8	50	14.4	33.6	–	–	–	–	–	–	–	–	–	–	–	–
CC1OCC2OC(C)OC(C3C4=C(CC(C)(C)CC4=O)OC4=C3C(=O)CC(C)(C)C4)C2O1 (configuration not stated)	> 100	> 100	> 100	> 100 µM	> 100	> 100	> 100	–	–	–	–	–	–	–	> 100	–	> 100	–	–	–
CC(C)C1CN1CC(O)Cn1ccnc1[N+](=O)[O-] (configuration not stated)	> 100	> 100	> 100	> 100 µM	> 100	–	> 100	> 100	–	–	–	–	–	–	> 100	–	> 100	–	–	–
CN(C(=O)C1CCCCC1)c1ccccc1I(=O)=O	> 100	44.6	> 100	> 100 µM	> 100	33.7	> 100	> 100	72.4	20	37.2	12.9	79.4	43.7	> 100	–	–	52.2	33.8 µM	34.6
